“Also recorded” adds a separate entry of the source.
Experiments:
aromatase = settings: microsomal enzyme preparations from human placenta; cited from earlier work
[1] = test system: estrogen production required for ovulation; settings: rats; cited from earlier work
[2] = target: T1, aromatase (microsomal fraction from human placenta) (Homo sapiens, UniProt P11511); experiment: biochemical; format: biochemical
T1 construct: microsomal fraction isolated from human placenta; from tissue; host or cells: human placenta, microsomal fraction
T1 sequence (P11511 1-503): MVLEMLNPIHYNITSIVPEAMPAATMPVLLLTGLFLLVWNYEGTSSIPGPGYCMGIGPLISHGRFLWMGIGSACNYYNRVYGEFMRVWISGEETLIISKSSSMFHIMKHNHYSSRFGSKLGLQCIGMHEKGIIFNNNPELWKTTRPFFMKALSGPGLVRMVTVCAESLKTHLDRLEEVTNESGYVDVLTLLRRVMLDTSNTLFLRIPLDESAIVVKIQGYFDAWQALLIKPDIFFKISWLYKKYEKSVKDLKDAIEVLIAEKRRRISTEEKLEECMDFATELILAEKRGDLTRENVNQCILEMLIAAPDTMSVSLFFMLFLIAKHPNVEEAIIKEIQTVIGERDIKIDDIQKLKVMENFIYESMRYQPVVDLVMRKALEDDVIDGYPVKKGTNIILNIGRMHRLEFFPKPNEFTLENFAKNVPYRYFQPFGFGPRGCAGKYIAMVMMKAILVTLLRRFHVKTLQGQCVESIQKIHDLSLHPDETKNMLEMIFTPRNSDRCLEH
Method: (§1) The aromatase inhibitory action of the compounds of the invention can be determined using a radioenzymatic assay. An aromatase enzyme preparation from the microsomal fraction isolated from human placenta is employed.
Assay buffer contains 100 mM KCl, 10 mM KH2 PO4, 10 mM dithiothreitol and 1 mM EDTA at pH 8.0. […] Aromatase requires NADPH as a cofactor, therefore a generating system is included which uses 0.5 mM NADP^+, 2.5 mM glucose-6-phosphate, and 1.0 unit/ml of glucose-6-phosphate dehydrogenase in assay buffer. The enzyme reaction is initiated by the addition of 700 μl of aromatase preparation, usually 50 μg microsomal protein per ml of assay buffer. These preparations are mixed using a vortex mixer and incubated for 30 minutes at 37° C. with 95% O2 :5% CO2 gas phase in a Dubinoff shaking incubator.
The enzymatic reaction is terminated by the addition of CHCl3. After vortexing 20 seconds, aqueous/organic emulsions are dispersed and phase separation achieved following centrifugation at 600×g for 10 minutes. Duplicate 500 μl samples of the upper aqueous phase of each incubation sample are added to 10×75 mm culture tubes. […] The radioactivity of ^3 H2 O resulting from liberated 1β and 2β tritium atoms during the enzymatic reaction is determined by counting for 10 minutes in a liquid scintillation counter. […]

[3] = target: T2, aromatase (aromatase preparation; microsomal protein) (Homo sapiens, UniProt P11511); experiment: biochemical
T2 sequence (P11511 1-503): T1 sequence (P11511 1-503)
Method: as §1
In this assay, the inhibitor is preincubated with enzyme prior to assaying for enzyme activity in the presence of high substrate levels.
In the time-dependent assay, an amount of the enzyme inhibitor in 100 μl of the assay buffer described above which will provide assay concentrations which are approximately one and ten times the IC50 values are added to 35 ml centrifuge tubes containing 600 μl of the NADPH generating system described above. The preincubation is started by the addition of 700 μl of aromatase preparation, usually 500-800 μg of microsomal protein per ml of assay buffer. These preparations are mixed using a vortex mixer and incubated for 0, 10, 20 or 40 minutes at 25° C. […] Following vortexing, the enzyme incubation is continued for 10 minutes before being terminated by the addition of chloroform. The amount of radioactivity in the aqueous fraction is determined by scintillation procedures. […] Therefore, the present enzyme inhibition is expressed as a percentage: [100 percent minus percent enzyme activity of inhibitor].
Compounds which show time-dependent inhibition are then assayed to establish the inhibition constant, Ki, which is the apparent dissociation constant for the enzyme-inhibitor complex. This determination requires measurements at initial velocities of enzyme reaction. […] The enzyme half-life (t1/2) at these different inhibitor concentrations ([In]) is used to determine the Ki by the linear regression equation of the t1/2 vs. 1/[In]. The Ki is equivalent to the inhibitor concentration when t1/2 is equal to zero.

[4] = test system: implantation in mated rats; settings: cited from earlier work

CC(=O)OC1=C2CC[C@@H]3[C@H](CC[C@]4(C)C(=O)CC[C@@H]34)[C@@]2(C)CCC1=O [4-acetoxy-androst-4-ene-3,17-dione]
identified as aromatase inhibitor (aromatase): identified as aromatase inhibitors | preventing estrogen production required for ovulation [1]: effective in preventing estrogen production required for ovulation in rats

C[C@]12CCC(=O)C(O)=C1CC[C@@H]1[C@@H]2CC[C@]2(C)C(=O)CC[C@@H]12 [4-hydroxy-androst-4-ene-3,17-dione]
identified as aromatase inhibitor (aromatase): identified as aromatase inhibitors

C#CC[C@]12CCC(=O)C=C1CC[C@@H]1[C@@H]2CC[C@]2(C)C(=O)CC[C@@H]12 [10-(2-propynyl)estr-4-ene-3,17-dione]
IC50 [2]: 4.2 nM | enzyme affinity compared with known inhibitors [2]: greater enzyme affinity than other known inhibitors; also recorded: superior to known aromatase inhibitors | Ki [3]: 8.9 nM | affinity for the enzyme site relative to that of the natural substrate testosterone ([3]; Ki vs. Km of testosterone): five times greater | irreversible binding to / irreversible inhibition of aromatase ([3]; time-dependent inhibition, in words): irreversibly bound to the enzyme

C[C@]12C=CC(=O)C=C1C=C[C@@H]1[C@@H]2CC[C@]2(C)C(=O)CC[C@@H]12 [Androsta-1,4,6-triene-3,17-dione]
identified as aromatase inhibitor (aromatase): identified as aromatase inhibitors | preventing implantation [4]: effective in preventing implantation in mated rats

Source: patent publication US4322416A, “10-Alkynyl steroids” (Merrell Dow Pharmaceuticals Inc., priority 1981, dated 1982)
